Patent US20200164084A1, “ANTIBODY CONJUGATES COMPRISING TOLL-LIKE RECEPTOR AGONIST AND COMBINATION THERAPIES” (NOVARTIS AG, priority 2017, published 2020)

Legend:
[1] = In vitro stability of conjugates in mouse serum (deconjugation and succinimide ring hydrolysis by LC-MS); assay type: in vitro ADME; conditions: anti-HER2 mAb2 conjugates, 37° C.
Protocol: The stability of the bond formed between maleimide containing payloads and Cys residues of the antibody is enhanced by the hydrolysis of the succinimide ring formed in this reaction. The effects of succinimide ring hydrolysis on the stability of antibody conjugates prepared with agonist compounds of the invention were studied after in vitro incubation in mouse serum. Mass changes resulting from payload deconjugation and the hydrolysis of the succinimide ring of maleimide payloads conjugated to antibodies were monitored by LC-MS. The hydrolysis of the succinimide ring has been reported to be stimulated by certain conditions such as high pH, high temperature, or high salts (J. Am. Chem. Soc. 1955, 77: 3922; Biochemistry 1976, 15: 2836; Biochem. J. 1979, 179: 191-197; J Pharm Sci. 1984, 73:1767-1771; Bioorg. Med. Chem. Lett. 17: 6286-6289, 2007). To probe the in vitro stability of conjugates, anti-HER2 antibody mAb2 conjugates were incubated at 37° C. in 50-70% mouse serum. […] The light chain, heavy chain Fab, and heavy chain Fc fragments were then analyzed by ESI-MS. The relative populations of deconjugated antibody, conjugates with attached payload with hydrolyzed succinimide ring, and conjugates with attached payload with intact succinimide ring, were calculated from the relative MS intensities of the corresponding conjugate species. […]

[2] = biological target: T1, human TLR7 (Homo sapiens, UniProt Q9NYK1); assay: TLR7 reporter gene assay (HEK293, NF-kB-driven luciferase); assay type: cell-based; conditions: HEK293 cells stably transfected with human TLR7 and NF-kB-driven luciferase reporter
T1 construct: expressed in transfected cells; host or cells: HEK293
T1 sequence (Q9NYK1 27-1049): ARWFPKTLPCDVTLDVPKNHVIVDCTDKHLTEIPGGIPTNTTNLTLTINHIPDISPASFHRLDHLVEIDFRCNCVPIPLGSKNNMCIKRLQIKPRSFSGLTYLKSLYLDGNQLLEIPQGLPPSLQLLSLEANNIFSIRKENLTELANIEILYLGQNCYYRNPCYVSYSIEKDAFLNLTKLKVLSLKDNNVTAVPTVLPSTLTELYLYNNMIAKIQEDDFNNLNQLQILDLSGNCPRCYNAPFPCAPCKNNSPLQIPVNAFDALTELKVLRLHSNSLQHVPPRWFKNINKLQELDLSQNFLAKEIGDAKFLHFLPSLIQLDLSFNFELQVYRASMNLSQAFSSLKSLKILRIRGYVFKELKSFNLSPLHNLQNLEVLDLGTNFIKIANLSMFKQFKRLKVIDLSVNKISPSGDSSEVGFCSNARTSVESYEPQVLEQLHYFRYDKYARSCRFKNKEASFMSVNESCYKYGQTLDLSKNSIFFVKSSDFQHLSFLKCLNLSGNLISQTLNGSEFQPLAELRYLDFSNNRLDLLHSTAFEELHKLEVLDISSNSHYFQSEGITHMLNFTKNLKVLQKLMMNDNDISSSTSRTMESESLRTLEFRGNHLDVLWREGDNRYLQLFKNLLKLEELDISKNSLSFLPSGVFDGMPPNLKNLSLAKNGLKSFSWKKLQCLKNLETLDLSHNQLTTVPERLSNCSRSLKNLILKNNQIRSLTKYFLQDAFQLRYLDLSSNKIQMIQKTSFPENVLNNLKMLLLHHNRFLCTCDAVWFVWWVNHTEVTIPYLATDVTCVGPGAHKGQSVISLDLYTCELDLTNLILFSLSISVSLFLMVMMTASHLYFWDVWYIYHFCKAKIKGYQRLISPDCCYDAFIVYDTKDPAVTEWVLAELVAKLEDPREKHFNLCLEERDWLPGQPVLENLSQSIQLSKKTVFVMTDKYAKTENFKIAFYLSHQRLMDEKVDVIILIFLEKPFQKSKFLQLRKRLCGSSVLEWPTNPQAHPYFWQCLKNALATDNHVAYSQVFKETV
Protocol: Compounds of Formula (I) were assayed to measure their activity as toll-like receptor 7 agonists.
As a control assay, normal HEK293 transfected with pNifty-Luc were used. […] Bright-Glo™ Luciferase assay buffer and substrate were supplied by Promega # E263B and # E264B (assay substrate and buffer respectively). 384 well clear-bottom plates were supplied by Greiner bio-one (#789163-G) and were custom bar-coded plates.
Cells were plated at 25,000 cells/well in 384-well plates in a final volume of 50 μl of media. Cells were allowed to adhere to the plates after overnight (18 hours) culture at 37° C. and 5% CO2. Serially diluted experimental and positive control compounds were then dispensed to each well and incubated for 7 hours at 37° C. and 5% CO2. Cells stimulated with DMSO alone also serve as negative controls. After the incubation, 30 μl of the pre-mix assay buffer and substrate buffer were added to each well according to manufacturer's instructions. The luminescence signal was read on a CLIPR machine with an integration time of 20 seconds per plate.

SMILES | conjugate stability (deconjugation through reverse maleimide reaction, succinimide ring hydrolysis) [1] | EC50 [2] [nM]
CCCCCNc1nc(N)nc2ccn(Cc3ccc(CN4CCN(C(=O)CCOCCOCCNC(=O)CN5C(=O)C=CC5=O)CC4)cc3OC)c12 [Compound C-21, N-(2-(2-(3-(4-(4-((2-amino-4-(pentylamino)-5H-pyrrolo[3,2-d]pyrimidin-5-yl)methyl)-3-methoxybenzyl)piperazin-1-yl)-3-oxopropoxy)ethoxy)ethyl)-2-(2,5-dioxo-2,5-dihydro-1H-pyrrol-1-yl)acetamide] | improved conjugate stability | 
CCCCCNc1nc(N)nc2ccn(Cc3ccc(CN4CCN(CCN5C(=O)C=CC5=O)CC4)cc3OC)c12 [Compound C-5, 1-(2-(4-(4-((2-amino-4-(pentylamino)-5H-pyrrolo[3,2-d]pyrimidin-5-yl)methyl)-3-methoxybenzyl)piperazin-1-yl)ethyl)-1H-pyrrole-2,5-dione] | improved conjugate stability | 
CCCC[C@@H](CO)Nc1nc(N)nc2ccn(Cc3cc(CN4CCN(C(=O)CCCC(=O)NCCCC[C@H](N)C(=O)O)CC4)ccc3OC)c12 [Compound C-48, (S)-2-amino-6-(5-(4-(3-((2-amino-4-(((S)-1-hydroxyhexan-2-yl)amino)-5H-pyrrolo[3,2-d]pyrimidin-5-yl)methyl)-4-methoxybenzyl)piperazin-1-yl)-5-oxopentanamido)hexanoic acid] |  | 1900
CCCCCNc1nc(N)nc2ccn(Cc3ccc(CN4CCN(CCO)CC4)cc3OC)c12 [Compound C-68, 2-(4-(4-((2-amino-4-(pentylamino)-5H-pyrrolo[3,2-d]pyrimidin-5-yl)methyl)-3-methoxybenzyl)piperazin-1-yl)ethan-1-ol] |  | < 1
